According to PubChem BioAssay AID1963846 (Molecular Pharmacology Branch, DTP, NCI, 2024):

Tested on: 454973-116-R2-J3-PDC complex spheroid viability
Test: Anticancer human tumor 454973-116-R2-J3-PDC patient-derived pancreatic carcinoma cell line growth inhibition [POLQ]
Conditions: for IC50: curve of first compound; for viability, T/C: stronger effect = lower value; active = viability on the fitted dose curve at most 10% of control; inactive = the rest
Method in brief: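 PDC + HUVEC + MSC complex spheroids; POLQ inhibitors ± partner drugs; top conc. at/near clinical Cmax, else 10 microM (SN-38 1 microM), half-log dilutions; 37 degrees C, 5% CO2.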

[1] = second compound 0.0316 µM, first compound 0.0316 µM
[2] = second compound 0.0316 µM, first compound 0.1 µM
[3] = second compound 0.0316 µM, first compound 0.316 µM
[4] = second compound 0.0316 µM, first compound 1 µM
[5] = second compound 0.0316 µM, first compound 3.16 µM
[6] = second compound 0.0316 µM, first compound 10 µM
[7] = second compound 0.1 µM, first compound 0.0316 µM
[8] = second compound 0.1 µM, first compound 0.1 µM
[9] = second compound 0.1 µM, first compound 0.316 µM
[10] = second compound 0.1 µM, first compound 1 µM
[11] = second compound 0.1 µM, first compound 3.16 µM
[12] = second compound 0.1 µM, first compound 10 µM
[13] = second compound 0.316 µM, first compound 0.0316 µM
[14] = second compound 0.316 µM, first compound 0.1 µM
[15] = second compound 0.316 µM, first compound 0.316 µM
[16] = second compound 0.316 µM, first compound 1 µM
[17] = second compound 0.316 µM, first compound 3.16 µM
[18] = second compound 0.316 µM, first compound 10 µM
[19] = second compound 1 µM, first compound 0.0316 µM
[20] = second compound 1 µM, first compound 0.1 µM
[21] = second compound 1 µM, first compound 0.316 µM
[22] = second compound 1 µM, first compound 1 µM
[23] = second compound 1 µM, first compound 3.16 µM
[24] = second compound 1 µM, first compound 10 µM
[25] = second compound 3.16 µM, first compound 0.0316 µM
[26] = second compound 3.16 µM, first compound 0.1 µM
[27] = second compound 3.16 µM, first compound 0.316 µM
[28] = second compound 3.16 µM, first compound 1 µM
[29] = second compound 3.16 µM, first compound 3.16 µM
[30] = second compound 3.16 µM, first compound 10 µM
[31] = second compound 10 µM, first compound 0.0316 µM
[32] = second compound 10 µM, first compound 0.1 µM
[33] = second compound 10 µM, first compound 0.316 µM
[34] = second compound 10 µM, first compound 1 µM
[35] = second compound 10 µM, first compound 3.16 µM
[36] = second compound 10 µM, first compound 10 µM
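Also: spheroids exposed to drugs for seven days before measurement.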
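For viability, T/C in this document: percent viability relative to DMSO vehicle control wells taken as 100%.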

C#Cc1c(F)ccc2cc(O)cc(-c3ncc4c(N5CC6CCC(C5)N6)nc(OCC56CCCN5CC(F)C6)nc4c3F)c12 (stereo unspecified) + Nc1ccc(C#CCN(C(=O)Cc2ncc(C(F)(F)F)cc2C(F)(F)F)c2ccc(F)cc2)nn1
< 0.0316 µM: IC50 (second compound 0.0316 µM) | IC50 (second compound 0.1 µM) | IC50 (second compound 0.316 µM) | IC50 (second compound 1 µM) | IC50 (second compound 3.16 µM) | IC50 (second compound 10 µM)
inactive: viability, T/C [1] 47.5% | viability, T/C [2] 36.1% | viability, T/C [3] 28.4% | viability, T/C [4] 24.1% | viability, T/C [5] 19% | viability, T/C [6] 18.1% | viability, T/C [7] 46.1% | viability, T/C [8] 36% | viability, T/C [9] 26% | viability, T/C [10] 24% | viability, T/C [11] 22.2% | viability, T/C [12] 18% | viability, T/C [13] 49.8% | viability, T/C [14] 35.8% | viability, T/C [15] 28.9% | viability, T/C [16] 25.5% | viability, T/C [17] 22.1% | viability, T/C [18] 19.6% | viability, T/C [19] 46.2% | viability, T/C [20] 35.1% | viability, T/C [21] 29.3% | viability, T/C [22] 25.4% | viability, T/C [23] 22.7% | viability, T/C [24] 18.8% | viability, T/C [25] 43.8% | viability, T/C [26] 35.4% | viability, T/C [27] 25.6% | viability, T/C [28] 25.2% | viability, T/C [29] 21.9% | viability, T/C [30] 18.5% | viability, T/C [31] 44.6% | viability, T/C [32] 39.3% | viability, T/C [33] 32.8% | viability, T/C [34] 28% | viability, T/C [35] 23.4% | viability, T/C [36] 23.5%

CC1COCCN1c1cc(C2(S(C)(=N)=O)CC2)nc(-c2ccnc3[nH]ccc23)n1 (stereo unspecified) + Nc1ccc(C#CCN(C(=O)Cc2ncc(C(F)(F)F)cc2C(F)(F)F)c2ccc(F)cc2)nn1
inactive: viability, T/C [1] 115% | viability, T/C [2] 104% | viability, T/C [3] 112% | viability, T/C [4] 100% | viability, T/C [5] 68% | viability, T/C [6] 22.5% | viability, T/C [7] 99.5% | viability, T/C [8] 109% | viability, T/C [9] 104% | viability, T/C [10] 97.5% | viability, T/C [11] 70.3% | viability, T/C [12] 24.3% | viability, T/C [13] 109% | viability, T/C [14] 122% | viability, T/C [15] 104% | viability, T/C [16] 95.2% | viability, T/C [17] 64.8% | viability, T/C [18] 20.9% | viability, T/C [19] 110% | viability, T/C [20] 111% | viability, T/C [21] 109% | viability, T/C [22] 109% | viability, T/C [23] 61.6% | viability, T/C [24] 17.3% | viability, T/C [25] 116% | viability, T/C [26] 106% | viability, T/C [27] 108% | viability, T/C [28] 105% | viability, T/C [29] 59.9% | viability, T/C [30] 23.1% | viability, T/C [31] 122% | viability, T/C [32] 114% | viability, T/C [33] 113% | viability, T/C [34] 111% | viability, T/C [35] 55% | viability, T/C [36] 15.5%
3.67 µM: IC50 (second compound 10 µM)
4.65 µM: IC50 (second compound 0.316 µM)
4.31 µM: IC50 (second compound 3.16 µM)
4.27 µM: IC50 (second compound 1 µM)
5.25 µM: IC50 (second compound 0.1 µM)
4.99 µM: IC50 (second compound 0.0316 µM)

O=C(Nc1ccc(O)c(NS(=O)(=O)c2ccc(F)cc2)c1)c1ccc(-c2ccccc2)cc1 + Cc1cccc(N(C)C(=O)C2C(O)CCN2c2nc(C)cc(C(F)(F)F)c2C#N)c1
> 10 µM: IC50 (second compound 0.0316 µM) | IC50 (second compound 0.1 µM) | IC50 (second compound 0.316 µM) | IC50 (second compound 1 µM) | IC50 (second compound 3.16 µM) | IC50 (second compound 10 µM)
inactive: viability, T/C [1] 98.1% | viability, T/C [2] 108% | viability, T/C [3] 87.1% | viability, T/C [4] 100% | viability, T/C [5] 114% | viability, T/C [6] 82.2% | viability, T/C [7] 96.8% | viability, T/C [8] 97.2% | viability, T/C [9] 101% | viability, T/C [10] 111% | viability, T/C [11] 102% | viability, T/C [12] 85.1% | viability, T/C [13] 105% | viability, T/C [14] 92.7% | viability, T/C [15] 102% | viability, T/C [16] 106% | viability, T/C [17] 110% | viability, T/C [18] 84.9% | viability, T/C [19] 98.9% | viability, T/C [20] 98.1% | viability, T/C [21] 100% | viability, T/C [22] 103% | viability, T/C [23] 108% | viability, T/C [24] 85% | viability, T/C [25] 107% | viability, T/C [26] 98.2% | viability, T/C [27] 98.4% | viability, T/C [28] 103% | viability, T/C [29] 112% | viability, T/C [30] 81.4% | viability, T/C [31] 102% | viability, T/C [32] 105% | viability, T/C [33] 104% | viability, T/C [34] 105% | viability, T/C [35] 95.8% | viability, T/C [36] 74.3%
